In the oligonucleotide strings, read from the 5' end, every base follows the letter of its sugar. An asterisk marks phosphorothioate; unmarked linkages are phosphodiester. Other units and linkages are bracketed, terminal groups are in braces. A string of capitals states the bases alone. d = 2'-deoxy (DNA)
Legend:
Assay type in all cases: cell-based, human
[1] = test system: p21; assay: p21 level in MCF7 cells (immunoblot, immunohistochemistry); conditions: for p21 level by immunoblot: 200 or 400 nM, 24 hours after transfection
Method: Antisense Transfections: […] (Wilsonville, Oreg.). The human p21 antisense ODN sequence was [NT] ID NO.: 4). The randomly scrambled sequence of control ODN was [NT] ID NO.: 3), and the second control ODN (used for the experiment depicted in FIG. 34 was the sense human p21 sequence [NT] ID NO.: 5). For the transfection procedure, cells were grown to 70% confluence and washed with sterile PBS, and the ODNs (200 or 400 nM) were mixed with 6.6 μl Lipofectin/ml Opti-MEM media and added to the cells for 5 hours at 37° C. Serum-free media (without ODNs) were added overnight, the media were changed in the morning, and the cells were stimulated with serum or platelet-derived growth factor-BB as indicated. Immunoblotting: For FIGS. 27A and B, aliquots of each breast tumor (7) and corresponding normal (N) tissue were homogenized and subjected to immunoblotting with full-length p21 antibody and α-actin as a loading control. Density of p21 and actin bands was determined and reported as a ratio. HeLa cell nuclear extract was electrophoresed on the same gel as a positive control for p21 mobility. The samples of breast cancer tissues were cut into small pieces and rapidly homogenized in lysis buffer (1 ml/ mg) at 4° C. Cells from cell lines were grown to confluence in 60-mm culture dishes, and after incubation under appropriate conditions, the cells were washed with PBS and lysed in lysis buffer at 4° C. The tissue homogenates or cell lysates were centrifuged (13,000× g, 4° C., 10 min), and the supernatants were Western blotted as described previously (Weiss, […]., and Ramirez, A., Am. J. Physiol., 274: […]-[…], 1998). Densitometry was analyzed using NIH Image. […] Percentage of cytoplasmic and nuclear staining, intensity of staining (using a scale of 0 to 3+), and tumor grading using a modified Bloom-Richardson combined histological grade were determined by a breast pathologist. […] A and B, the cells were lysed, and equal protein quantities (20 μg) were electrophoresed and immunoblotted with p21 antibody. […] Density of p21 and MAPK bands was determined and reported as a ratio. […]

[2] = test system: PARP; assay: PARP cleavage by immunoblot in T47D cells
Method: (§1) As a further measure of apoptosis, cleavage of PARP was next examined. This protein is cleaved by caspases and results in appearance of Mr 85,000 and Mr 24,000 fragments, the latter of which binds irreversibly to broken ends of DNA, which assures irreversibility of apoptosis. Both breast cancer cell lines were transfected with antisense p21 and random sequence ODNs and immunoblotted with PARP antibody. […] T47D (A) and MCF7 (B) cells were grown to confluence, serum starved for 24 hours, and lipofected with antisense p21 or control ODN at the concentrations indicated. cont refers to nontransfected cells, and lipofect refers to cells treated with lipofectin but no DNA. The cells were lysed, and equal protein quantities were electrophoresed and immunoblotted with PARP antibody. The degradation product of PARP (Mr 85,000) is indicated by an arrow. MAPK is a loading control; a positive PARP cleavage control is Jurkat whole cell lysate.

[3] = test system: PARP; assay: PARP cleavage by immunoblot in MCF7 cells
Method: as §1

5′-ATC-CCC-AGC-CGG-TTC-TGA-CAT-3′ (antisense ATCCCCAGCCGGTTCTGACAT; listed as DNA, chemistry not fully specified) [antisense p21 ODN]
p21 level by immunoblot [1]: marked, dose-dependent attenuation | p21 staining by immunohistochemistry ([1]; compared with random sequence ODN): decreased p21 staining | PARP cleavage (Mr 85,000 product) [2]: marked PARP cleavage | PARP cleavage (Mr 85,000 product) [3]: marked PARP cleavage

5′-TGG ATC CGA CAT GTC AGA-3′ (dT*dG*dG*dA*dT*dC*dC*dG*dA*dC*dA*dT*dG*dT*dC*dA*dG*dA) [random sequence control oligonucleotide, reference compound]
p21 level by immunoblot [1]: moderate decrease | PARP cleavage (Mr 85,000 product) [2]: proapoptotic effect | PARP cleavage (Mr 85,000 product) [3]: proapoptotic effect
